Reference: patent US20040121316A1 (priority 2002, published 2004)
Like-named read-outs stand apart in the source and are kept apart here.

Experiments:
MT-2 cells [1] = system: MT-2 cells
WT HIV-1 = experiment: microbe, parasite or virus in culture; type: cell-based; settings: XTT-based cytopathic assay; read-out: EC50 WT HIV-1
[2] = system: recombinant HIV-1 strains with resistance mutations in the protease gene; experiment: Cross-Resistance Profile Assay, whole panel; type: cell-based
[3] = system: MT-2 cells, stimulated and quiescent PBMC
MT-2 cells [4] = system: MT-2 cells; remark: listed apart in the source
[5] = system: PBMC in human whole blood
[6] = not given; remark: listed apart in the source
[7] = not given; remark: listed apart in the source
GS-7340 Ester Hydrolase = GS-7340 Ester Hydrolase (Homo sapiens, UniProt P10619); type: biochemical
GS-7340 Ester Hydrolase, sequence (P10619 29-480): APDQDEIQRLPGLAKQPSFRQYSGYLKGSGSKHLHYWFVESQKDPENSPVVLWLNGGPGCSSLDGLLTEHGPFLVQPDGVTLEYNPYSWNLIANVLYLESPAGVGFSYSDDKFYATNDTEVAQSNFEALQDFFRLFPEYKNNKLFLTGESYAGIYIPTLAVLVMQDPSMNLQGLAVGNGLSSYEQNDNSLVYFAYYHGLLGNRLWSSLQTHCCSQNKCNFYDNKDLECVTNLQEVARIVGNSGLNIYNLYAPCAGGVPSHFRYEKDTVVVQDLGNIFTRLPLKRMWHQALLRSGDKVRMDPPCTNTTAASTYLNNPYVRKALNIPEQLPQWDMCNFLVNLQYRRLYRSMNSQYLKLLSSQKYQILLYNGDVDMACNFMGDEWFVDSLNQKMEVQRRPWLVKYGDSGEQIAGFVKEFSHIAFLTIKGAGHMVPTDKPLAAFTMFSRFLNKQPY

[8] = molecular target: human leukocyte elastase (huLE) (Homo sapiens, UniProt P08246); experiment: biochemical; settings: IC50 (μM) huLE
human leukocyte elastase (huLE), sequence (P08246 30-267): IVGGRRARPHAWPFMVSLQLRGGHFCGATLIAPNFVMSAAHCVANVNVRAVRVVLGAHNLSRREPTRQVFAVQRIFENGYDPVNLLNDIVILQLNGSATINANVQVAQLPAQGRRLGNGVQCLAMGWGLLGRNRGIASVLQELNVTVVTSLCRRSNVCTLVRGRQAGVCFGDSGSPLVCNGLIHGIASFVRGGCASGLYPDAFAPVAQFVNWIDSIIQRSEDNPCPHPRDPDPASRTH

[9] = molecular target: porcine liver carboxylesterase (PLCE) (Sus scrofa, UniProt Q29550); type: biochemical
porcine liver carboxylesterase (PLCE), sequence (Q29550 whole entry): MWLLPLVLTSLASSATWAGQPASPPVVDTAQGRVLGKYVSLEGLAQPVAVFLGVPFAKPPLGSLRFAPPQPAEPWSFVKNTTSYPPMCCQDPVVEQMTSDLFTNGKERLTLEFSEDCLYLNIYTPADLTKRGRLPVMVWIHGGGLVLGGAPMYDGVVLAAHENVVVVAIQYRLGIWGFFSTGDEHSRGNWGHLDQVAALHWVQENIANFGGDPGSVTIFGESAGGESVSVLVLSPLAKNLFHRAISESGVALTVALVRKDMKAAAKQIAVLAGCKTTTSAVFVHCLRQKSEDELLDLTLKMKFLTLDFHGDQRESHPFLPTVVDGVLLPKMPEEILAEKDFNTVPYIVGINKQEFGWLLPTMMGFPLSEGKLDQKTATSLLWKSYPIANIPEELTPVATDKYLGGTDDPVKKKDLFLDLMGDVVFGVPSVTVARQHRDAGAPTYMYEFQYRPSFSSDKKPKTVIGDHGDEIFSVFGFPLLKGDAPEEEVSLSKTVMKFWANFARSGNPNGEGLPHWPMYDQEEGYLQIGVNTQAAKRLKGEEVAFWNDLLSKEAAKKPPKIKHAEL

[10] = molecular target: T1, recombinant HIV-1 protease (Human immunodeficiency virus type 1 group M subtype B, UniProt P04585); experiment: biochemical; settings: Ki
T1 construct: Enzyme: recombinant HIV-1 protease expressed in E.Coli; purchased Bachem California, Inc. H-9040; host or cells: E. coli

[11] = system: wild-type HIV-1 strain IIIB; experiment: microbe, parasite or virus in culture; type: cell-based; settings: Human immunodeficiency virus 1, IIIB
mutant HIV-1 I84V/L90M = experiment: Resistance Evaluation, I84V/L90M fold change; type: cell-based; settings: EC50 of mutant I84V/L90M relative to wild type; class symbols
[12] = system: recombinant HIV-1 46I 84A; experiment: Cross-Resistance Profile Assay; type: cell-based; settings: protease mutations 46I 84A
[13] = system: recombinant HIV-1 46I 47V 50V; experiment: microbe, parasite or virus in culture; type: cell-based; settings: protease mutations 46I 47V 50V
[14] = system: recombinant HIV-1 10R 46I 82T 84V; experiment: Cross-Resistance Profile Assay; type: cell-based; settings: protease mutations 10R 46I 82T 84V
[15] = system: recombinant HIV-1 10F 46I 71V 82T 90M; experiment: Cross-Resistance Profile Assay; type: cell-based; settings: protease mutations 10F 46I 71V 82T 90M
[16] = system: recombinant HIV-1 10I 48V 71V 82A 90M; experiment: microbe, parasite or virus in culture; type: cell-based; settings: protease mutations 10I 48V 71V 82A 90M
[17] = system: recombinant HIV-1 48V 54V 71V 82S; experiment: microbe, parasite or virus in culture; type: cell-based; settings: protease mutations 48V 54V 71V 82S
[18] = system: recombinant HIV-1 10I 84V 71V 73S 90M; experiment: microbe, parasite or virus in culture; type: cell-based; settings: protease mutations 10I 84V 71V 73S 90M
[19] = system: recombinant HIV-1 10I 48V 54V 82A; experiment: microbe, parasite or virus in culture; type: cell-based; settings: protease mutations 10I 48V 54V 82A
[20] = system: recombinant HIV-1 30N 50S 82I 88D; experiment: microbe, parasite or virus in culture; type: cell-based; settings: protease mutations 30N 50S 82I 88D
[21] = system: recombinant HIV-1 54V 71V 82S; experiment: Cross-Resistance Profile Assay; type: cell-based; settings: protease mutations 54V 71V 82S

## CCOP(=O)(OCC)c1ccc(CC(NC(=O)OC2COC3OCCC23)C(O)CN(CC(C)C)S(=O)(=O)c2ccc(OC)cc2)cc1 (centres unmarked) [Compound 28]
MT-2 cells [1]
  CC50: 70 µM

## CCCCOC(=O)C(C)NP(=O)(COc1ccc(CC(NC(=O)OC2COC3OCCC23)C(O)CN(CC(C)C)S(=O)(=O)c2ccc(OC)cc2)cc1)NC(C)C(=O)OCCCC (centres unmarked) [GS-16503]
WT HIV-1
  EC50: 0.016 µM
[2]; resistance = 5-fold and higher change in EC50 of the mutant relative to wild-type, 11 mutant viruses
  Total No. of Resistant Viruses: 0
[3]
  intracellular metabolites formed: Metabolite X and GS-8373
MT-2 cells [4]
  Metabolism (conversion to acid metabolites), dependence on concentration: concentration-dependent
  increase in conversion to acid metabolites at 1 μM vs. 10 μM: 3 fold
[5]
  Intracellular Acid Metabolite Concentration: 279 ± 47 µM
  Intracellular Concentration, Acid Metabolite: 279 ± 47 µM
  Intracellular Concentration, Prodrug: 61 ± 40 µM
  Intracellular Prodrug: 61 ± 40 µM
  Intracellular Prodrug and Metabolites Concentration, Total: 340 ± 35 µM
  Intracellular Prodrug and Metabolites Total: 340 ± 35 µM
  Major Intracellular Metabolites: X, GS-8373
Quiescent PBMC
  Cell-Associated PI, Prodrug: 0 pmol/mln cells
  composition of metabolites in PBMC: equimolar mixture of metabolite X and GS-8373
other
  PBMC Extract T1/2: 2 min
  PBMC Extract T1/2, min: 2 min
[6]
  Dog Plasma T1/2: 368 min
  Dog Plasma T1/2, min: 368 min
[7]
  Human Serum T1/2: >>400 min
  Human Serum T1/2, min: >>400 min

## O=c1oc(Cl)c(Cl)c2ccccc12 [3,4-dichloroisocoumarin]
GS-7340 Ester Hydrolase; 1 µM
  Relative Activity (%): 100%
GS-7340 Ester Hydrolase; 10 µM
  Relative Activity (%): 25%
GS-7340 Ester Hydrolase; 100 µM
  Relative Activity (%): 5%
GS-7340 Ester Hydrolase; 1000 µM
  Relative Activity (%): <2%
[8]
  IC50: 3 µM
[9]
  IC50: 250 µM
[9]; read-out: IC50 (μM) PLCE
  IC50: 250 µM

## COc1ccc(S(=O)(=O)N(CC(C)C)C[C@@H](O)[C@H](Cc2ccc(P(=O)(O)O)cc2)NC(=O)O[C@H]2CO[C@H]3OCC[C@H]32)cc1 [Compound 27]
MT-2 cells [1]
  CC50: > 100 µM

## Cc1cccc(C)c1OCC(=O)N[C@@H](Cc1ccccc1)[C@@H](O)C[C@H](Cc1ccccc1)NC(=O)[C@H](C(C)C)N1CCCNC1=O [Lopinavir, reference compound]
[10]
  Ki: 10 to 100 pM
[11]
  EC50: < 0.05 µM
Mutant HIV-1 I84V/L90M
  I84V/L90M fold change: ++ (>10 to ≦30)
[12]
  Fold Change in EC50 Relative to WT HIV-1: 9 fold
[13]
  Fold Change in EC50 Relative to WT HIV-1: 19 fold
[14]
  Fold Change in EC50 Relative to WT HIV-1: 11 fold
[15]
  Fold Change in EC50 Relative to WT HIV-1: 7.5 fold
[16]
  Fold Change in EC50 Relative to WT HIV-1: 4.5 fold
[17]
  Fold Change in EC50 Relative to WT HIV-1: 60 fold
[18]
  Fold Change in EC50 Relative to WT HIV-1: 11 fold
[2]; {}
  Total No. of Resistant Viruses: 6

## CCOC(=O)C(C)OP(=O)(COc1ccc(C[C@H](NC(=O)O[C@H]2CO[C@H]3OCC[C@H]32)[C@H](O)CN(CC(C)C)S(=O)(=O)c2ccc(OC)cc2)cc1)Oc1ccccc1 (some centres unmarked) [GS-17394]
[3]
  intracellular metabolites formed: Metabolite LX
MT-2 cells [4]
  Metabolism (conversion to acid metabolites), dependence on concentration: independent
[5]
  Intracellular Acid Metabolite Concentration: 629 ± 303 µM
  Intracellular Concentration, Acid Metabolite: 629 ± 303 µM
  Intracellular Concentration, Prodrug: 69 ± 85 µM
  Intracellular Prodrug: 69 ± 85 µM
  Intracellular Prodrug and Metabolites Concentration, Total: 698 ± 301 µM
  Intracellular Prodrug and Metabolites Total: 698 ± 301 µM
Quiescent PBMC
  Cell-Associated PI, Prodrug: 0 pmol/mln cells
  composition of metabolites in PBMC: only metabolite LX
other
  PBMC Extract T1/2: 15 min
  PBMC Extract T1/2, min: 15 min
[6]
  Dog Plasma T1/2: 144 min
  Dog Plasma T1/2, min: 144 min
[7]
  Human Serum T1/2: 49 min
  Human Serum T1/2, min: 49 min

## CCC[C@@]1(CCc2ccccc2)CC(O)=C([C@H](CC)c2cccc(NS(=O)(=O)c3ccc(C(F)(F)F)cn3)c2)C(=O)O1 [Tipranavir, reference compound]
[11]
  EC50: 0.05 to 0.5 µM
Mutant HIV-1 I84V/L90M
  I84V/L90M fold change: + (>3 to ≦10)
[12]
  Fold Change in EC50 Relative to WT HIV-1: 1 fold
[19]
  Fold Change in EC50 Relative to WT HIV-1: 0.4 fold
[13]
  Fold Change in EC50 Relative to WT HIV-1: 0.5 fold
[14]
  Fold Change in EC50 Relative to WT HIV-1: 5 fold
[20]
  Fold Change in EC50 Relative to WT HIV-1: 0.5 fold
[21]
  Fold Change in EC50 Relative to WT HIV-1: 3.5 fold
[15]
  Fold Change in EC50 Relative to WT HIV-1: 3 fold
[16]
  Fold Change in EC50 Relative to WT HIV-1: 0.3 fold
[17]
  Fold Change in EC50 Relative to WT HIV-1: 2 fold
[2]; {}
  Total No. of Resistant Viruses: 1
